Test results: ChEMBL document CHEMBL4387741, “Optimization of novel reversible Bruton's tyrosine kinase inhibitors identified using Tethering-fragment-based screens” (Bioorg Med Chem, 2019)

How the values were obtained:
[1] = target: BDNF/NT-3 growth factors receptor (Homo sapiens) (UniProt Q16620); assay: Inhibition of wild-type human partial length TRKB (Q547 to G838 residues) expressed in mammalian expression system at 1 uM by Kinomescan method relative to control
[2] = target: Calcium/calmodulin-dependent protein kinase type 1B (Homo sapiens) (UniProt Q6P2M8); assay: Inhibition of wild-type human partial length CAMK1B (W9 to A311 residues) expressed in mammalian expression system at 1 uM by Kinomescan method relative to control
Sequence of Calcium/calmodulin-dependent protein kinase type 1B (Homo sapiens) (Q6P2M8 whole entry, the tested form may be a part): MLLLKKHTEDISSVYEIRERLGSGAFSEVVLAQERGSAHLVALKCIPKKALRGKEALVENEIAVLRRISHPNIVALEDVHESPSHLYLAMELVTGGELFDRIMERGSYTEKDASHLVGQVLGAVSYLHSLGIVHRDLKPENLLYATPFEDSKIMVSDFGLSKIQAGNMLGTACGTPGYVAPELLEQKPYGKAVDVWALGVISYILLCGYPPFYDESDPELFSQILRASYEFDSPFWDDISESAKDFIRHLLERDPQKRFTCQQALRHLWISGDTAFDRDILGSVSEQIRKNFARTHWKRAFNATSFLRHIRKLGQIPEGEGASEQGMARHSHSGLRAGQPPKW

[3] = target: Ephrin type-B receptor 3 (Homo sapiens) (UniProt P54753); assay: Inhibition of wild-type human partial length EPHB3 (Q599 to T928 residues) expressed in bacterial expression system at 1 uM by Kinomescan method relative to control
[4] = tested on: Tyrosine-protein kinase ABL1 (Homo sapiens), P00519 [T315I]; assay: Inhibition of human non-phosphorylated ABL1 T315I mutant (S229 to K512 residues) expressed in mammalian expression system at 1 uM by Kinomescan method relative to control
[5] = target: Mitotic checkpoint serine/threonine-protein kinase BUB1 (Homo sapiens) (UniProt O43683); assay: Inhibition of wild-type human partial length BUB1 (Q724 to K1085 residues) expressed in mammalian expression system at 1 uM by Kinomescan method relative to control
[6] = target: Tyrosine-protein kinase JAK1 (Homo sapiens) (UniProt P23458); assay: Inhibition of wild-type human partial length JAK1 JH2 pseudokinase domain (R537 to D855 residues) expressed in mammalian expression system at 1 uM by Kinomescan method relative to control
Sequence of Tyrosine-protein kinase JAK1 (Homo sapiens) (P23458 whole entry, the tested form may be a part): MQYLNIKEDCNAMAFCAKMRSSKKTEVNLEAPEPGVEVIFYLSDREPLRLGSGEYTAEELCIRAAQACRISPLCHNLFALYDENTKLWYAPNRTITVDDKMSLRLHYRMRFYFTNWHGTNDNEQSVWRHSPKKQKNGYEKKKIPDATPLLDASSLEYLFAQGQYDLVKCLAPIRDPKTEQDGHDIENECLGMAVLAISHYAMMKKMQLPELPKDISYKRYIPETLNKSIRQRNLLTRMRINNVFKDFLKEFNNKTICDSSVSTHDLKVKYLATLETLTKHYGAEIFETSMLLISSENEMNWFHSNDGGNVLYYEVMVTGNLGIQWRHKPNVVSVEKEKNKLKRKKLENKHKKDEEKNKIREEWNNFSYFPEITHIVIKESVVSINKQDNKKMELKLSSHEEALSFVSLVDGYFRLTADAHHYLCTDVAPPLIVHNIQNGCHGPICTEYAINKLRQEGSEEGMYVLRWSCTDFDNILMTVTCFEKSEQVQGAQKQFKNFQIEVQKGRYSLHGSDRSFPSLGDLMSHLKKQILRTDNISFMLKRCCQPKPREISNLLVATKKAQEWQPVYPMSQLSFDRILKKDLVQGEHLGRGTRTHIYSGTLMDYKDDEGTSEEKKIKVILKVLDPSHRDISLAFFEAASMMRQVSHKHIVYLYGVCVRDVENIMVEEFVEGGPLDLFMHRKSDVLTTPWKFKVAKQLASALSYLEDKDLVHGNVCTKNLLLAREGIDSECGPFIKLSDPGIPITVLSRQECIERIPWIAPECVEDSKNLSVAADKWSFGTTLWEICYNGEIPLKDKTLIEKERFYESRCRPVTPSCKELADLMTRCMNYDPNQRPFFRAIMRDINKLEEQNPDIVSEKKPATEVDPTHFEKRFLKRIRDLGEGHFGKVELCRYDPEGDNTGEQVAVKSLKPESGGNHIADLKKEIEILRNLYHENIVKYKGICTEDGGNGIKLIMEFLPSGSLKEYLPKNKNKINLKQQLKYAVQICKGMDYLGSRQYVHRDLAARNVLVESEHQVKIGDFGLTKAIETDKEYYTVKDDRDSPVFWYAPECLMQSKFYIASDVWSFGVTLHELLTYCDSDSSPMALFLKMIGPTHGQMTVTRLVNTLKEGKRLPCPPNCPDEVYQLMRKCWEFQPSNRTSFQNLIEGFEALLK

[7] = target: Serine/threonine-protein kinase Nek3 (Homo sapiens) (UniProt P51956); assay: Inhibition of wild-type human full length NEK3 (M1 to R506 residues) expressed in mammalian expression system at 1 uM by Kinomescan method relative to control
[8] = tested on: ALK tyrosine kinase receptor (Homo sapiens), Q9UM73 [L1196M]; assay: Inhibition of wild-type human partial length ALK L1196M mutant (I1088 to E1409 residues) expressed in mammalian expression system at 1 uM by Kinomescan method relative to control
[9] = target: Mitogen-activated protein kinase kinase kinase kinase 1 (Homo sapiens) (UniProt Q92918); assay: Inhibition of wild-type human full length HPK1 (M1 to R799 residues) expressed in bacterial expression system at 1 uM by Kinomescan method relative to control
[10] = target: Cyclin-dependent kinase 18 (Homo sapiens) (UniProt Q07002); assay: Inhibition of wild-type human full length PCTK3 (M3 to F474 residues) expressed in bacterial expression system at 1 uM by Kinomescan method relative to control
[11] = target: Serine/threonine-protein kinase 32B (Homo sapiens) (UniProt Q9NY57); assay: Inhibition of wild-type human full length YANK2 (M1 to S414 residues) expressed in bacterial expression system at 1 uM by Kinomescan method relative to control
[12] = target: Fibroblast growth factor receptor 2 (Homo sapiens) (UniProt P21802); assay: Inhibition of wild-type human partial length FGFR2 (D457 to E769 residues) expressed in bacterial expression system at 1 uM by Kinomescan method relative to control
[13] = target: Atypical kinase COQ8B, mitochondrial (Homo sapiens) (UniProt Q96D53); assay: Inhibition of wild-type human full length ADCK4 (M1 to S544 residues) expressed in bacterial expression system at 1 uM by Kinomescan method relative to control
[14] = AUC (infinity) in po dosed Sprague-Dawley rat using amorphous solid form of compound; assay type: ADME, organism-based; set-up: route oral, time infinity; conditions: in vivo
[15] = target: Dual specificity protein kinase CLK4 (Homo sapiens) (UniProt Q9HAZ1); assay: Inhibition of wild-type human partial length CLK4 (R135 to K481 residues) expressed in bacterial expression system at 10 uM by Kinomescan method relative to control
[16] = target: Inhibitor of nuclear factor kappa-B kinase subunit alpha (Homo sapiens) (UniProt O15111); assay: Inhibition of wild-type human full length IKK-alpha (M1 to E745 residues) expressed in mammalian expression system at 10 uM by Kinomescan method relative to control
Sequence of Inhibitor of nuclear factor kappa-B kinase subunit alpha (Homo sapiens) (O15111 whole entry, the tested form may be a part): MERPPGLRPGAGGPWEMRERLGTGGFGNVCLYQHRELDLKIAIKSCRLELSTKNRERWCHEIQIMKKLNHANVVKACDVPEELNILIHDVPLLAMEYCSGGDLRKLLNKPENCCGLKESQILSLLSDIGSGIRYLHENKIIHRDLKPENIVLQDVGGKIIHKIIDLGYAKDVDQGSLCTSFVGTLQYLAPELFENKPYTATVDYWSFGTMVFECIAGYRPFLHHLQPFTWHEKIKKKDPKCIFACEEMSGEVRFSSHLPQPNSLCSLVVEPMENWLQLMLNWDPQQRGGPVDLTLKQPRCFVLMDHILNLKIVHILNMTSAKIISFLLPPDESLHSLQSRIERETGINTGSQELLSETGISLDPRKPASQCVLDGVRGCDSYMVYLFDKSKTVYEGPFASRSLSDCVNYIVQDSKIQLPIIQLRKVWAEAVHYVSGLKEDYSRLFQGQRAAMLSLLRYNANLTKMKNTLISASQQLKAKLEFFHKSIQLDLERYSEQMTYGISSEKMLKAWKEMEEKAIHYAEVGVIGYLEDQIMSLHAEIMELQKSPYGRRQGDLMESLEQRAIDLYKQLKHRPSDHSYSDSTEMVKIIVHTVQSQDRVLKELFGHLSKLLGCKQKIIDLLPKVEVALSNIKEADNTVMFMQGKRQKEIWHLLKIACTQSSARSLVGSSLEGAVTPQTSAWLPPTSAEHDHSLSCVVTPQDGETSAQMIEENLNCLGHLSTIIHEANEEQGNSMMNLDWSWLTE

[17] = target: cAMP-dependent protein kinase catalytic subunit alpha (Homo sapiens) (UniProt P17612); assay: Inhibition of wild-type human partial length PKAC-alpha (G10 to F351 residues) expressed in bacterial expression system at 10 uM by Kinomescan method relative to control
[18] = tested on: Epidermal growth factor receptor (Homo sapiens), P00533 [G719C]; assay: Inhibition of human partial length EGFR G719C mutant (R669 to V1011 residues) expressed in bacterial expression system at 10 uM by Kinomescan method relative to control
[19] = target: Peripheral plasma membrane protein CASK (Homo sapiens) (UniProt O14936); assay: Inhibition of wild-type human partial length CASK (M1 to H315 residues) expressed in mammalian expression system at 10 uM by Kinomescan method relative to control
Sequence of Peripheral plasma membrane protein CASK (Homo sapiens) (O14936 whole entry, the tested form may be a part): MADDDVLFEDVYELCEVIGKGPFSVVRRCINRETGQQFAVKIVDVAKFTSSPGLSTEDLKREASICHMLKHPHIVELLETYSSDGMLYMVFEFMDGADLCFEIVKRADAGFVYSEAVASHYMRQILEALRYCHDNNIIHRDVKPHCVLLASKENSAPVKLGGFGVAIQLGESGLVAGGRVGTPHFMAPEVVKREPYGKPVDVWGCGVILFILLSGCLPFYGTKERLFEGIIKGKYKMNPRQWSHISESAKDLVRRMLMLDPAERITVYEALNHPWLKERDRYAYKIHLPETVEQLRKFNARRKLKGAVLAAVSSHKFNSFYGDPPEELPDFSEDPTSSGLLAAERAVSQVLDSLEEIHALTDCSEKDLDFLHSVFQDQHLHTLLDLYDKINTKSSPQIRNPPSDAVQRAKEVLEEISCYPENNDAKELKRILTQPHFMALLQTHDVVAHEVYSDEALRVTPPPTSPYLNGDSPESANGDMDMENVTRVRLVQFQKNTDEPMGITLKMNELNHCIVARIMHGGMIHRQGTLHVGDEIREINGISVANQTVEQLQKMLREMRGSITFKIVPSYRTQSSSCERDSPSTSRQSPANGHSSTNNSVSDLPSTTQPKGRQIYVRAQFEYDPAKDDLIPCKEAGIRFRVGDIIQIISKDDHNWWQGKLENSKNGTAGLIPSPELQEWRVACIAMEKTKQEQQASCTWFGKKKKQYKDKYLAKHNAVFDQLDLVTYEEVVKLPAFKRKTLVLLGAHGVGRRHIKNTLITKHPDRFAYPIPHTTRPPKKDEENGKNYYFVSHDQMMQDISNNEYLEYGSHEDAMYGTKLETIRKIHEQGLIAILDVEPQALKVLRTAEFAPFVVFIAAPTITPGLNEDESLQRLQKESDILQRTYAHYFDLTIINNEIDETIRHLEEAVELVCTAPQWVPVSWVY

[20] = target: Ephrin type-B receptor 1 (Homo sapiens) (UniProt P54762); assay: Inhibition of wild-type human partial length EPHB1 (P589 to T911 residues) expressed in bacterial expression system at 10 uM by Kinomescan method relative to control
[21] = target: Serine/threonine-protein kinase DCLK2 (Homo sapiens) (UniProt Q8N568); assay: Inhibition of wild-type human partial length DCAMKL2 (K273 to V664 residues) expressed in bacterial expression system at 10 uM by Kinomescan method relative to control
[22] = tested on: Phosphatidylinositol 4,5-bisphosphate 3-kinase catalytic subunit alpha isoform (Homo sapiens), P42336 [M1043I]; assay: Inhibition of human partial length PIK3CA M1043I mutant (R108 to N1068 residues) expressed in mammalian expression system at 10 uM by Kinomescan method relative to control
Sequence of Phosphatidylinositol 4,5-bisphosphate 3-kinase catalytic subunit alpha isoform (Homo sapiens), P42336 [M1043I] (P42336 whole entry M1043I, the tested form may be a part, canonical isoform): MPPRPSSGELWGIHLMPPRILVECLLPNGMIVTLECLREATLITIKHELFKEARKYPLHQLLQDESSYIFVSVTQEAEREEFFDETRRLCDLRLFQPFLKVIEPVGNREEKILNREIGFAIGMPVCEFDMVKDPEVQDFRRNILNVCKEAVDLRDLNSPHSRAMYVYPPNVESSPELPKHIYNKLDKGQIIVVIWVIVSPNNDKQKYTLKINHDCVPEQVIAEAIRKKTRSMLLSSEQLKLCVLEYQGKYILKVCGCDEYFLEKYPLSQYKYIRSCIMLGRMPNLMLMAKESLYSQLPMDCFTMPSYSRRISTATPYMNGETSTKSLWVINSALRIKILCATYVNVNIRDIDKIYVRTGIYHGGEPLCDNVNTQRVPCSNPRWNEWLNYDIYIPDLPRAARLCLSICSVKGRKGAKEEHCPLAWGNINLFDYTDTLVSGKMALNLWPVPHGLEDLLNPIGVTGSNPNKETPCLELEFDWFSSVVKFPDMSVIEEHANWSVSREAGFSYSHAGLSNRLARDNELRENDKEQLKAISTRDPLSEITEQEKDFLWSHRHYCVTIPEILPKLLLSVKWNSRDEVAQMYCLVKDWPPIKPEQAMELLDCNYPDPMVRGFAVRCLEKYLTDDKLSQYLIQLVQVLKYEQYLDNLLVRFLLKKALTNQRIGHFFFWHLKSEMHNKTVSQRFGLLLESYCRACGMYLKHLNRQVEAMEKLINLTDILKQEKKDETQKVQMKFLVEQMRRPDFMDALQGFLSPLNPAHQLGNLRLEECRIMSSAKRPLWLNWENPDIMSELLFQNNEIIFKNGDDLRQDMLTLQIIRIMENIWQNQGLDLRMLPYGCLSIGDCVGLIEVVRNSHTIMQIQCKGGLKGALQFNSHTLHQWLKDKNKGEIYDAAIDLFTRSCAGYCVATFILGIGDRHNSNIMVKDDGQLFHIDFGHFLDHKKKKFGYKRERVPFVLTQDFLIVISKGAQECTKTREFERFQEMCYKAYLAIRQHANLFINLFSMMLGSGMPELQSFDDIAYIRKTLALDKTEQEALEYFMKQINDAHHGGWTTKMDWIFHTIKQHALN

[23] = target: Dual specificity mitogen-activated protein kinase kinase 5 (Homo sapiens) (UniProt Q13163); assay: Inhibition of wild-type human partial length MEK5 (L98 to P448 residues) expressed in mammalian expression system at 10 uM by Kinomescan method relative to control
Sequence of Dual specificity mitogen-activated protein kinase kinase 5 (Homo sapiens) (Q13163 whole entry, the tested form may be a part): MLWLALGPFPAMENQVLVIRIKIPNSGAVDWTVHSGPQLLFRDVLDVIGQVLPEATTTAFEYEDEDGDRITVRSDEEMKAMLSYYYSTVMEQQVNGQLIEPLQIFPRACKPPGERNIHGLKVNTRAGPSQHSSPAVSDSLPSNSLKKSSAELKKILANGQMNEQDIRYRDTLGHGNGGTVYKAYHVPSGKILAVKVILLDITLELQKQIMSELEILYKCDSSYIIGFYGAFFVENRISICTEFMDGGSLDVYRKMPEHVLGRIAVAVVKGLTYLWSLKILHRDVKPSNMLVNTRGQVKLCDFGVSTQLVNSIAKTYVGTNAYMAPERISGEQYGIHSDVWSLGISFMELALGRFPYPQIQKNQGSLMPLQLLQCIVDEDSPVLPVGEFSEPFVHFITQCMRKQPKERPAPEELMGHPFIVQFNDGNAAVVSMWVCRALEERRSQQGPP

[24] = target: Vascular endothelial growth factor receptor 3 (Homo sapiens) (UniProt P35916); assay: Inhibition of wild-type human partial length FLT4 (E821 to E1196 residues) expressed in bacterial expression system at 10 uM by Kinomescan method relative to control
[25] = target: Ribosomal protein S6 kinase alpha-1 (Homo sapiens) (UniProt Q15418); assay: Inhibition of wild-type human partial length C-terminal RSK1 kinase domain 2 (P360 to L681 residues) expressed in bacterial expression system at 10 uM by Kinomescan method relative to control
[26] = target: Epithelial discoidin domain-containing receptor 1 (Homo sapiens) (UniProt Q08345); assay: Inhibition of wild-type human partial length DDR1 (R565 to V876 residues) expressed in bacterial expression system at 10 uM by Kinomescan method relative to control
[27] = target: Fibroblast growth factor receptor 4 (Homo sapiens) (UniProt P22455); assay: Inhibition of wild-type human partial length FGFR4 (G402 to E713 residues) expressed in bacterial expression system at 10 uM by Kinomescan method relative to control

`O=C(Nc1cccc([C@@H]2CN(c3ncnc4[nH]ccc34)CCN2CCO)c1)Nc1c(F)cccc1N1CCCC1` gave an inhibition [1] of 100%, an inhibition [2] of 98% and an inhibition [3] of 100%. For the same compound, the inhibition [4] was 100%, the inhibition [5] was 87% and the inhibition [6] was 75%. For the same compound, the inhibition [7] was 65%, the inhibition [8] was 74% and the inhibition [9] was 100%. For the same compound, the inhibition [10] was 97%, the inhibition [11] was 100% and the inhibition [12] was 54%. It also gave an inhibition [13] of 92% and an AUC(0-inf) [14] of 1890 ng·h/mL.
With `O=C(Nc1cccc([C@H]2CCCN(c3ncnc4[nH]ccc34)C2)c1)Nc1ccccc1N1CCCC1` the inhibition [15] was 96%, the inhibition [16] was 27% and the inhibition [17] was 98%. It also gave an inhibition [18] of 86%, an inhibition [19] of 85% and an inhibition [20] of 100%. The inhibition [21] was 83%, the inhibition [22] was 93% and the inhibition [23] was 18%. It also gave an inhibition [24] of 0.55%, an inhibition [25] of 60% and an inhibition [26] of 3.5%. It also gave an inhibition [27] of 96%.
